Laboratory results from ChEMBL document CHEMBL3045097, “Synthesis and anticonvulsant evaluation of 2-(substituted benzylidene/ethylidene)-N-(substituted phenyl)hydrazinecarboxamide analogues” (Med Chem Res, 2013).
Active and inactive are the calls of the source. The rule behind the calls is not given here.

What was measured:
Mus musculus [1] = assay: Anticonvulsant activity in Mus musculus (mouse) assessed as protection against scMET-induced clonic seizures at 30 to 300 mg/kg, ip measured at 0.5 to 4 hr; type: functional, organism-based
Mus musculus [2] = assay: Anticonvulsant activity in Mus musculus (mouse) assessed as protection against 6 Hz psychomotor-induced clonic seizures at 100 mg/kg, i.p. measured at 0.5 hr relative to control; type: functional
Mus musculus [3] = assay: Anticonvulsant activity in Mus musculus (mouse) assessed as protection against 6 Hz psychomotor-induced clonic seizures at 100 mg/kg, i.p. measured at 0.25 hr relative to control; type: functional
Mus musculus [4] = assay: Neurotoxicity in Mus musculus (mouse) assessed as motor impairment at 100 mg/kg, ip measured at 2 hr by rotarod test relative to control; type: toxicity, organism-based; set-up: dose 100 mg/kg, route intraperitoneal; conditions: in vivo
Mus musculus [5] = assay: Anticonvulsant activity in Mus musculus (mouse) assessed as protection against 6 Hz psychomotor-induced clonic seizures at 100 mg/kg, i.p. measured at 1 hr relative to control; type: functional
Mus musculus [6] = assay: Anticonvulsant activity in Mus musculus (mouse) assessed as protection against 6 Hz psychomotor-induced clonic seizures at 100 mg/kg, ip measured at 2 hr relative to control; type: functional
Mus musculus [7] = assay: Anticonvulsant activity in Mus musculus (mouse) assessed as protection against maximal-electric shock-induced seizures at 30 to 300 mg/kg, ip measured at 0.5 hr; type: functional, organism-based
Mus musculus [8] = assay: Anticonvulsant activity in Mus musculus (mouse) assessed as protection against maximal-electric shock-induced seizures at 30 to 300 mg/kg, ip measured at 4 hr; type: functional, organism-based
Mus musculus [9] = assay: Neurotoxicity in Mus musculus (mouse) assessed as motor impairment at 100 mg/kg, ip measured at 0.25 hr by rotarod test relative to control; type: toxicity, organism-based; set-up: dose 100 mg/kg, route intraperitoneal; conditions: in vivo
Mus musculus [10] = assay: Neurotoxicity in Mus musculus (mouse) assessed as motor impairment at 30 to 300 mg/kg, ip measured at 0.5 hr by rotarod test; type: toxicity, organism-based; set-up: dose 30-300 mg/kg, route intraperitoneal; conditions: in vivo
Mus musculus [11] = assay: Neurotoxicity in Mus musculus (mouse) assessed as motor impairment at 100 mg/kg, ip measured at 0.5 hr by rotarod test relative to control; type: toxicity, organism-based; set-up: dose 100 mg/kg, route intraperitoneal; conditions: in vivo
Mus musculus [12] = assay: Anticonvulsant activity in Mus musculus (mouse) assessed as protection against 6 Hz psychomotor-induced clonic seizures at 100 mg/kg, i.p. measured at 4 hr relative to control; type: functional
Mus musculus [13] = assay: Neurotoxicity in Mus musculus (mouse) assessed as motor impairment at 100 mg/kg, ip measured at 1 hr by rotarod test relative to control; type: toxicity, organism-based; set-up: dose 100 mg/kg, route intraperitoneal; conditions: in vivo
Mus musculus [14] = assay: Neurotoxicity in Mus musculus (mouse) assessed as motor impairment at 30 to 300 mg/kg, ip measured at 4 hr by rotarod test; type: toxicity, organism-based; set-up: dose 30-300 mg/kg, route intraperitoneal; conditions: in vivo
Mus musculus [15] = assay: Neurotoxicity in Mus musculus (mouse) assessed as motor impairment at 100 mg/kg, ip measured at 4 hr by rotarod test relative to control; type: toxicity, organism-based; set-up: dose 100 mg/kg, route intraperitoneal; conditions: in vivo
Mus musculus [16] = assay: Anticonvulsant activity in i.p. dosed Mus musculus (mouse) assessed as protection against maximal-electric shock-induced seizures measured at 4 hr; type: functional; conditions: ip, read-out: MED
Mus musculus [17] = assay: Neurotoxicity in i.p. dosed Mus musculus (mouse) assessed as motor impairment measured at 0.5 hr by rotarod test; type: toxicity, organism-based; conditions: in vivo, ip
Mus musculus [18] = assay: Neurotoxicity in i.p. dosed Mus musculus (mouse) assessed as motor impairment measured at 4 hr by rotarod test; type: toxicity, organism-based; conditions: in vivo, ip
Mus musculus [19] = assay: Anticonvulsant activity in i.p. dosed Mus musculus (mouse) assessed as protection against maximal-electric shock-induced seizures measured at 0.5 hr; type: functional; conditions: ip, read-out: MED

NNC(=O)Nc1ccccc1Cl
Activity (Mus musculus [1]): inactive | Activity (Mus musculus [2]; route intraperitoneal): 100% | Activity (Mus musculus [3]; route intraperitoneal): 100% | Activity (Mus musculus [4]): Non-toxic | Activity (Mus musculus [5]; route intraperitoneal): 100% | Activity (Mus musculus [6]; route intraperitoneal): 100% | Activity (Mus musculus [7]): inactive | Activity (Mus musculus [8]): inactive | Activity (Mus musculus [9]): 25% | Activity (Mus musculus [10]): Non-toxic | Activity (Mus musculus [11]): 25% | Activity (Mus musculus [12]): Active | Activity (Mus musculus [13]): 25% | Activity (Mus musculus [14]): Non-toxic | Activity (Mus musculus [15]): 25%

O=C(N/N=C/c1ccc(Cl)cc1)Nc1ccccc1Cl
Activity (Mus musculus [1]): inactive | Activity (Mus musculus [7]): inactive | Activity (Mus musculus [8]): inactive | Activity (Mus musculus [10]): Non-toxic | Activity (Mus musculus [14]): Non-toxic

C/C(=N\NC(=O)Nc1ccccc1Cl)c1ccc(Cl)cc1
Activity (Mus musculus [1]): inactive | Activity (Mus musculus [2]): inactive | Activity (Mus musculus [3]): inactive | Activity (Mus musculus [4]): Non-toxic | Activity (Mus musculus [5]; route intraperitoneal): 50% | Activity (Mus musculus [6]): inactive | Activity (Mus musculus [7]): inactive | Activity (Mus musculus [9]): Non-toxic | minimal effective dose (Mus musculus [16]): 100 mg/kg | Activity (Mus musculus [10]): Non-toxic | Activity (Mus musculus [11]): Non-toxic | Activity (Mus musculus [12]): inactive | Activity (Mus musculus [13]): Non-toxic | Activity (Mus musculus [14]): Non-toxic | Activity (Mus musculus [15]): Non-toxic

C/C(=N\NC(=O)Nc1ccc(C)cc1)c1ccccc1O
Activity (Mus musculus [1]): inactive | Activity (Mus musculus [7]): inactive | Activity (Mus musculus [8]): inactive | Activity (Mus musculus [10]): Non-toxic | Activity (Mus musculus [14]): Non-toxic

O=C(NN=C1CCCC1)Nc1ccccc1Cl
Activity (Mus musculus [1]): inactive | Activity (Mus musculus [7]): inactive | Activity (Mus musculus [8]): inactive | Activity (Mus musculus [10]): Non-toxic | Activity (Mus musculus [14]): Non-toxic

COc1ccc(/C=N/NC(=O)Nc2ccccc2Cl)cc1OC
Activity (Mus musculus [1]): inactive | Activity (Mus musculus [2]): inactive | Activity (Mus musculus [3]; route intraperitoneal): 25% | Activity (Mus musculus [4]): Non-toxic | Activity (Mus musculus [5]): inactive | Activity (Mus musculus [6]; route intraperitoneal): 25% | Activity (Mus musculus [7]): inactive | Activity (Mus musculus [9]): Non-toxic | minimal effective dose (Mus musculus [16]): 100 mg/kg | Activity (Mus musculus [10]): Non-toxic | Activity (Mus musculus [11]): Non-toxic | Activity (Mus musculus [12]; route intraperitoneal): 25% | Activity (Mus musculus [13]): Non-toxic | Activity (Mus musculus [14]): Non-toxic | Activity (Mus musculus [15]): Non-toxic

CC(=O)C/C(C)=N/NC(=O)Nc1ccc(C)cc1
Activity (Mus musculus [1]): inactive | Activity (Mus musculus [7]): inactive | Activity (Mus musculus [8]): inactive | Activity (Mus musculus [10]): Non-toxic | Activity (Mus musculus [14]): Non-toxic

O=C(N/N=C/c1ccc(Cl)cc1Cl)Nc1ccccc1Cl
Activity (Mus musculus [1]): inactive | Activity (Mus musculus [7]): inactive | Activity (Mus musculus [8]): inactive | Activity (Mus musculus [10]): Non-toxic | Activity (Mus musculus [14]): Non-toxic

NC(=O)N1c2ccccc2C=Cc2ccccc21 [CARBAMAZEPINE]
Activity (Mus musculus [1]): inactive | MTC (Mus musculus [17]): 100 mg/kg | MTC (Mus musculus [18]): 300 mg/kg | minimal effective dose (Mus musculus [16]): 100 mg/kg | minimal effective dose (Mus musculus [19]): 30 mg/kg

Cc1ccc(NC(=O)N/N=C/c2ccccc2Cl)cc1
Activity (Mus musculus [1]): inactive | Activity (Mus musculus [7]): inactive | Activity (Mus musculus [8]): inactive | Activity (Mus musculus [10]): Non-toxic | Activity (Mus musculus [14]): Non-toxic

O=C(N/N=C/c1ccco1)Nc1ccccc1Cl
Activity (Mus musculus [1]): inactive | Activity (Mus musculus [7]): inactive | Activity (Mus musculus [8]): inactive | Activity (Mus musculus [10]): Non-toxic | Activity (Mus musculus [14]): Non-toxic

Cc1ccc(NC(=O)NN)cc1
Activity (Mus musculus [1]): inactive | Activity (Mus musculus [2]; route intraperitoneal): 50% | Activity (Mus musculus [3]; route intraperitoneal): 100% | Activity (Mus musculus [4]): 25% | Activity (Mus musculus [5]; route intraperitoneal): 50% | MTC (Mus musculus [18]): 300 mg/kg | Activity (Mus musculus [6]; route intraperitoneal): 25% | Activity (Mus musculus [8]): inactive | Activity (Mus musculus [9]): Non-toxic | Activity (Mus musculus [10]): Non-toxic | Activity (Mus musculus [11]): Non-toxic | minimal effective dose (Mus musculus [19]): 300 mg/kg | Activity (Mus musculus [12]): inactive | Activity (Mus musculus [13]): Non-toxic | Activity (Mus musculus [15]): 50%

COc1ccc(/C(C)=N/NC(=O)Nc2ccccc2Cl)cc1
Activity (Mus musculus [1]): inactive | MTC (Mus musculus [18]): 300 mg/kg | minimal effective dose (Mus musculus [16]): 300 mg/kg | Activity (Mus musculus [10]): Non-toxic | minimal effective dose (Mus musculus [19]): 300 mg/kg

O=C(N/N=C/c1ccc(O)cc1)Nc1ccccc1Cl
Activity (Mus musculus [1]): inactive | Activity (Mus musculus [2]; route intraperitoneal): 100% | Activity (Mus musculus [3]; route intraperitoneal): 50% | Activity (Mus musculus [4]): Non-toxic | Activity (Mus musculus [5]; route intraperitoneal): 50% | Activity (Mus musculus [6]; route intraperitoneal): 50% | Activity (Mus musculus [7]): inactive | Activity (Mus musculus [9]): Non-toxic | minimal effective dose (Mus musculus [16]): 100 mg/kg | Activity (Mus musculus [10]): Non-toxic | Activity (Mus musculus [11]): Non-toxic | Activity (Mus musculus [12]): inactive | Activity (Mus musculus [13]): Non-toxic | Activity (Mus musculus [14]): Non-toxic | Activity (Mus musculus [15]): Non-toxic

Cc1ccc(NC(=O)N/N=C/c2cccc(O)c2)cc1
Activity (Mus musculus [1]): inactive | Activity (Mus musculus [2]; route intraperitoneal): 25% | Activity (Mus musculus [3]; route intraperitoneal): 50% | Activity (Mus musculus [4]): Non-toxic | Activity (Mus musculus [5]): inactive | Activity (Mus musculus [6]; route intraperitoneal): 25% | Activity (Mus musculus [7]): inactive | Activity (Mus musculus [8]): inactive | Activity (Mus musculus [9]): Non-toxic | Activity (Mus musculus [10]): Non-toxic | Activity (Mus musculus [11]): Non-toxic | Activity (Mus musculus [12]): inactive | Activity (Mus musculus [13]): Non-toxic | Activity (Mus musculus [14]): Non-toxic | Activity (Mus musculus [15]): Non-toxic

O=C(N/N=C/c1cccc(O)c1)Nc1ccccc1Cl
Activity (Mus musculus [1]): inactive | Activity (Mus musculus [7]): inactive | Activity (Mus musculus [8]): inactive | Activity (Mus musculus [10]): Non-toxic | Activity (Mus musculus [14]): Non-toxic

O=C1NC(=O)C(c2ccccc2)(c2ccccc2)N1 [PHENYTOIN]
Activity (Mus musculus [1]): inactive | MTC (Mus musculus [17]): 100 mg/kg | MTC (Mus musculus [18]): 100 mg/kg | minimal effective dose (Mus musculus [16]): 30 mg/kg | minimal effective dose (Mus musculus [19]): 30 mg/kg

COc1cc(/C=N/NC(=O)Nc2ccc(C)cc2)ccc1O
Activity (Mus musculus [1]): inactive | Activity (Mus musculus [7]): inactive | Activity (Mus musculus [8]): inactive | Activity (Mus musculus [10]): Non-toxic | Activity (Mus musculus [14]): Non-toxic

C/C(=N\NC(=O)Nc1ccccc1Cl)c1ccc(C)cc1
Activity (Mus musculus [1]): inactive | Activity (Mus musculus [7]): inactive | Activity (Mus musculus [8]): inactive | Activity (Mus musculus [10]): Non-toxic | Activity (Mus musculus [14]): Non-toxic

C/C(=N\NC(=O)Nc1ccc(C)cc1)c1ccc(O)cc1O
Activity (Mus musculus [1]): inactive | Activity (Mus musculus [7]): inactive | Activity (Mus musculus [8]): inactive | Activity (Mus musculus [10]): Non-toxic | Activity (Mus musculus [14]): Non-toxic

Cc1ccc(NC(=O)NN=C2CCCCC2)cc1
Activity (Mus musculus [1]): inactive | Activity (Mus musculus [2]; route intraperitoneal): 100% | Activity (Mus musculus [3]; route intraperitoneal): 25% | Activity (Mus musculus [4]): Non-toxic | Activity (Mus musculus [5]; route intraperitoneal): 50% | Activity (Mus musculus [6]): inactive | Activity (Mus musculus [7]): inactive | Activity (Mus musculus [9]): Non-toxic | minimal effective dose (Mus musculus [16]): 300 mg/kg | Activity (Mus musculus [10]): Non-toxic | Activity (Mus musculus [11]): Non-toxic | Activity (Mus musculus [12]; route intraperitoneal): 25% | Activity (Mus musculus [13]): Non-toxic | Activity (Mus musculus [14]): Non-toxic | Activity (Mus musculus [15]): Non-toxic
